Values of other authors in PMC6856260 (Clinical Pharmacokinetics, 2019).
Like-named read-outs stand apart in the source and are kept apart here.

Tests used:
[1] = post-dose fasting periods of 15, 30, 60 and 120 min; oral, co-formulated with SNAC
[2] = co-formulated with 5-CNAC

reduction of exposure of salmon calcitonin ([2]; meal 10 min after oral dosing versus 60 min post-dose fasting) | reduction of exposure of salmon calcitonin ([2]; meal 10 min after oral dosing versus 4 h post-dose fasting) | Substance | effect of increasing post-dose fasting period on exposure (in words) [1]
 |  | semaglutide: oral semaglutide co-formulated with SNAC | increasing semaglutide exposure
up to 30% | 41% | salmon calcitonin | 
